From publication PMC5974403, “The novel histone de acetylase 6 inhibitor, MPT0G211, ameliorates tau phosphorylation and cognitive deficits in an Alzheimer’s disease model” (Cell Death & Disease, 2018) come the findings set out here.

Entries after “also recorded” stand apart in the source; their conditions may differ.

The subject of series [1] is SH-SY5Y cells. In words: Western blot of acetyl-α-tubulin and acetyl-histone, SH-SY5Y cells. It is filed as cell-based, human. As to conditions: 0.1 to 1 μM, 24 h. Here is the method: (§1) Cell viabilities were determined by MTT assay. The results represent the mean ± SEM of three independent experiments; *p < 0.05, **p < 0.01 and ***p < 0.001 compared with controls TEXT PRINTED IN THE PICTURE: (A) no label printed: M.W. 293.32
(§2) Cells (1 × 10^6) were incubated for 10 min at 4 °C in lysis buffer (20 mM HEPES, pH 7.4, 2 mM EGTA, 50 mM β-glycerophosphate, 0.1% Triton X-100, 10% glycerol, 1 mM dithiothreitol, 1 μg/mL leupeptin, 5 μg/mL aprotinin, 1 mM phenylmethylsulfonyl fluoride, and 1 mM sodium orthovanadate), scraped from the plate, incubated on ice for 10 min, and centrifuged at 17,000 × g for 30 min at 4 °C. Protein samples (30 μg) were electrophoresed through sodium dodecyl sulfate-polyacrylamide gels (SDS-PAGE) and transferred onto a nitrocellulose membrane, which was then blocked by incubation for 30 min at room temperature with 5% fat-free milk in PBS. Immunoblotting was performed by overnight incubation at 4 °C with primary antibodies in PBS, followed by incubation for 1 h at room temperature with HRP-conjugated secondary antibodies. Bound antibodies were measured using ECL reagent (T-Pro Biotechnology, New Taipei City, Taiwan), and the membrane was placed on a photographic film. Cell lysates (30 μg) were incubated with antibodies (1 μg each) and protein A/G agarose beads overnight at 4 °C. The precipitated beads were washed three times with 1 mL of ice-cold cell lysis buffer, and bound immune complexes were separated using 8% SDS-PAGE, followed by immunoblotting using the indicated primary antibody.

Series [2] concerns Neuro-2a cells. Briefly: Immunoprecipitation/immunoblot of HDAC6, acetyl-lysine, ubiquitin in transfected Neuro-2a cells. As to conditions: Neuro-2a transfected, 24 h. It is filed as cell-based, mouse. The procedure: Fig. 4 MPT0G211 increased the ubiquitination of p-tau and degradation by proteasome. a, b SH-SY5Y and Neuro-2a cells were transfected for 24 h with pCAX APP 695 and pRK5-EGFP-Tau P301L and incubated with MPT0G211 or ACY-1215 (0.1 μM) for another 24 h, after which the cell lysates were immunoprecipitated with antibodies against HDAC6, acetyl-lysine (a) or ubiquitin (b) and were subjected to immunoblotting. c Cells were transfected with pCAX APP 695 and pRK5-EGFP-Tau P301L for 24 h and were then incubated with MPT0G211 (0.01–1 μM) for another 24 h. Immunoblots reveal polyubiquitin complexes. d pCAX APP 695 or pRK5-EGFP-Tau P301L were used to transfect the cells for 24 h, incubated with or without MG132 (1 μM) for 30 min, and were then treated with MPT0G211 or ACY-1215 (0.1 μM) for another 24 h. Cell lysates were prepared for western blot analysis of the indicated proteins
as §2
On the technique in general: In western blotting, separated proteins are transferred to a membrane and probed.

Series [3] concerns SH-SY5Y cells. In words: MTT cell viability, SH-SY5Y. It is filed as cell-based, human. The following applies: 24 h, 0.01–1 μM. Here is the method: as §1
Another series in a line: Elevated plus maze. Also on record: species or system rat. The following applies: AD in vivo models; stated in introduction only. Here is the method:
The plus maze consisted of two open and two closed arms, connected by a central platform. Animals were individually placed at the end of either of the open arms facing away from the central platform. The time for each rat to move from the open arm to either of the closed arms was recorded. […] These experiments were performed in accordance with relevant ethics guidelines and regulations, which were reviewed and approved by the Animal Use and Management Committee of the College of Medicine, National Taiwan University (IACUC number: 20130361).

Series [4] concerns SH-SY5Y cells. Briefly: Aβ1–40-induced tau phosphorylation, western blot. It is filed as cell-based, human. The following applies: Aβ1–40 10 μM 24 h, then 0.1 μM for 24 h. Here is the method:
(§3) Cell lysates were prepared for western blot analysis of the indicated proteins. Results are presented as the mean ± SEM. *p < 0.05, **p < 0.01, and ***p < 0.001 compared with the control group; ^#p < 0.05, ^##p < 0.01, ^###p < 0.001 compared with the indicated groups
as §2, with “The precipitated beads were washed three times with 1 mL of ice-cold cell lysis buffer, and bound immune complexes were separated using 8% SDS-PAGE, followed by immunoblotting using the indicated primary antibody.” left out

The subject of series [5] is SH-SY5Y cells. In words: Western blot of tau phosphorylation and kinases in SH-SY5Y cells transfected with pCAX APP 695 and pRK5-EGFP-Tau P301L. It is filed as cell-based, human. As to conditions: 0.1 μM, 24 h. The procedure:
Images represented magnification at ×100. b Cells were transfected with pCAX APP 695 for 24 h, harvested, and cell lysates were subjected to Western blotting. c, d SH-SY5Y and Neuro-2a cells were transfected with pCAX APP 695 and/or pRK5-EGFP-Tau P301L for 24 h. Cell lysates were prepared for western blot analysis of the indicated proteins. e, f Cells were transfected with pCAX APP 695 and pRK5-EGFP-Tau P301L for 24 h and were then incubated with or without MPT0G211 or ACY-1215 (0.1 μM) for another 24 h. Cell lysates were subjected to western blot analysis using the indicated antibodies. Results are presented as the mean ± SEM from three independent experiments. **p < 0.01, ***p < 0.001 compared with the control group; ^#p < 0.05, ^##p < 0.01 compared with the indicated groups
as §3
Cells were seeded 1 day before transfection. The plasmids pCAX FLAG APP and pRK5-EGFP-Tau P301L (1 μg each) and 1 μL of TurboFect transfection reagent were mixed for 20 min at room temperature, added to the cells, and the suspensions were incubated for 24 h at 37 °C in a humidified atmosphere containing 5% CO2.
as §2

Series [6] relates to Neuro-2a cells. In words: Western blot of acetyl-α-tubulin and acetyl-histone, Neuro-2a cells. The class given is cell-based, mouse. The following applies: 0.1 to 1 μM, 24 h. The procedure:
as §1, §2

In series [7] the test system is Neuro-2a cells. Briefly: MTT cell viability, Neuro-2a. The class given is cell-based, mouse. The following applies: 24 h, 0.01–1 μM. Here is the method:
as §1

Take `O=C(NO)c1ccc(CNc2cccc3cccnc23)cc1` [MPT0G211, N-hydroxy-4-((quinolin-8-ylamino)methyl)benzamide]: in the series with SH-SY5Y cells [1], the acetylation of histones entry is “without affecting the acetylation of histones” and the “acetylation of α-tubulin” value is given as “concentration-dependently increased”. The “coimmunoprecipitation of ubiquitin with p-tau (Ser396)” value with Neuro-2a cells [2] (0.1 μM) is listed as “clearly increased”. In addition, in the series on Neuro-2a cells [2] (0.1 μM, IP), the HDAC6/Hsp90 binding entry is given as “downregulation” and the “acetylation of Hsp90” value is on record as “clearly enhanced”. For the same compound, the “level of polyubiquitinated proteins” value with Neuro-2a cells [2] (0.01–1 μM) was “significantly accumulated”. Besides, the “cytotoxicity (MTT cell viability)” value in the series on SH-SY5Y cells [3] is given as “did not result in any significant cytotoxicity”. The “time spent in finding the closed arm (elevated plus maze) and platform (Morris water maze)” value in the series “Elevated plus maze” is “reduced the time spent by animals in finding the platform and closed arm”. Further, the “GSK3β activity and Aβ1–40-induced tau phosphorylation” value in the series on SH-SY5Y cells [4] is “diminished”. Besides, in the series on SH-SY5Y cells [5] (SH-SY5Y transfected hAPP 695 + hTau P301L), the “phosphorylation of tau Ser396” value is “significantly inhibited; also recorded: significantly attenuated”. Further, in the series on SH-SY5Y cells [5] (SH-SY5Y transfected), the “CDK5, p25, or p35 expression” value is “no marked changes”; the “phospho-GSK3β on Ser9” value was “significant phospho-GSK3β increases”; the “phospho-GSK3β on Ser216” value is “a decrease”; the “phosphorylation of tau Ser404” value is reported as “significantly attenuated”. In the series on Neuro-2a cells [6], the acetylation of histones result is given as “without affecting the acetylation of histones” and the “acetylation of α-tubulin” value is listed as “concentration-dependently increased”. Further, the “cytotoxicity (MTT cell viability)” value in the series with Neuro-2a cells [7] is “did not result in any significant cytotoxicity”.
